Laboratory results taken from the supplement of paper PMC10307832.

What was measured:
Assay in all cases: relative viability (nuclei count vs DMSO), 5 days (fraction); higher = more cells survive
HARA = tested on: HARA
How it was run: (§1)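 A single step with final 0.05% Triton X-100, 1% formaldehyde and 1 ug/ml Hoechst fixed the cells and stained nuclei 5 days after treatment. Lung cancer cell lines in 1536-well plates had been treated by pin tool the day after seeding with one drug alone or a fixed anchor-drug dose plus five library-drug doses (not always all listed) in √10 steps, and nuclei were counted on 4× images. Relative viability is the ratio of nuclei in treated wells to nuclei in vehicle wells, taken as the median of duplicate plates.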

NCI-H727 = tested on: NCI-H727
How it was run: as §1

EKVX = tested on: EKVX
How it was run: as §1

NCI-H650 = tested on: NCI-H650
How it was run: as §1

NCI-H2126 = tested on: NCI-H2126
How it was run: as §1

LOU-NH91 = tested on: LOU-NH91
How it was run: as §1

NCI-H2405 = tested on: NCI-H2405
How it was run: as §1

H3255 = tested on: H3255
How it was run: as §1

PC-3 [JPC-3] = tested on: PC-3 [JPC-3]
How it was run: as §1

NCI-H23 = tested on: NCI-H23
How it was run: as §1

HCC-827 = tested on: HCC-827
How it was run: as §1

LCLC-103H = tested on: LCLC-103H
How it was run: as §1

NCI-H3122 = tested on: NCI-H3122
How it was run: as §1

ChaGo-K-1 = tested on: ChaGo-K-1
How it was run: as §1

HOP-62 = tested on: HOP-62
How it was run: as §1

NCI-H596 = tested on: NCI-H596
How it was run: as §1

SW 900 = tested on: SW 900
How it was run: as §1

201T = tested on: 201T
How it was run: as §1

NCI-H1975 = tested on: NCI-H1975
How it was run: as §1

Compound: Cc1cn(-c2cc(NC(=O)c3ccc(C)c(Nc4nccc(-c5cccnc5)n4)c3)cc(C(F)(F)F)c2)cn1 [Nilotinib] + NC(=O)Nc1cc(-c2cccc(F)c2)sc1C(=O)N[C@H]1CCCNC1 [AZD7762] (partner 0.2 µM)
- relative viability (HARA; first compound 0.001 µM): 0.329
- relative viability (HARA; first compound 0.003162 µM): 0.208
- relative viability (HARA; first compound 0.01 µM): 0.536
- relative viability (HARA; first compound 0.03162 µM): 0.197
- relative viability (HARA; first compound 0.1 µM): 0.245
- relative viability (NCI-H727; first compound 0.001 µM): 0.574
- relative viability (NCI-H727; first compound 0.003162 µM): 0.528
- relative viability (NCI-H727; first compound 0.01 µM): 0.456
- relative viability (NCI-H727; first compound 0.03162 µM): 0.573
- relative viability (NCI-H727; first compound 0.1 µM): 0.58
- relative viability (EKVX; first compound 0.001 µM): 0.599
- relative viability (EKVX; first compound 0.003162 µM): 0.654
- relative viability (EKVX; first compound 0.01 µM): 0.729
- relative viability (EKVX; first compound 0.03162 µM): 0.688
- relative viability (EKVX; first compound 0.1 µM): 0.555
- relative viability (NCI-H650; first compound 0.001 µM): 1.08
- relative viability (NCI-H650; first compound 0.003162 µM): 1.01
- relative viability (NCI-H650; first compound 0.01 µM): 0.914
- relative viability (NCI-H650; first compound 0.03162 µM): 0.918
- relative viability (NCI-H650; first compound 0.1 µM): 0.721
- relative viability (NCI-H2126; first compound 0.001 µM): 0.965
- relative viability (NCI-H2126; first compound 0.003162 µM): 1.14
- relative viability (NCI-H2126; first compound 0.01 µM): 1.06
- relative viability (NCI-H2126; first compound 0.03162 µM): 0.962
- relative viability (NCI-H2126; first compound 0.1 µM): 0.606
- relative viability (LOU-NH91; first compound 0.001 µM): 0.748
- relative viability (LOU-NH91; first compound 0.003162 µM): 0.742
- relative viability (LOU-NH91; first compound 0.01 µM): 0.772
- relative viability (LOU-NH91; first compound 0.03162 µM): 0.65
- relative viability (LOU-NH91; first compound 0.1 µM): 0.684
- relative viability (NCI-H2405; first compound 0.001 µM): 0.684
- relative viability (NCI-H2405; first compound 0.003162 µM): 0.628
- relative viability (NCI-H2405; first compound 0.01 µM): 0.665
- relative viability (NCI-H2405; first compound 0.03162 µM): 0.557
- relative viability (NCI-H2405; first compound 0.1 µM): 0.399
- relative viability (H3255; first compound 0.001 µM): 0.827
- relative viability (H3255; first compound 0.003162 µM): 0.65
- relative viability (H3255; first compound 0.01 µM): 0.908
- relative viability (H3255; first compound 0.03162 µM): 0.811
- relative viability (H3255; first compound 0.1 µM): 0.733
- relative viability (PC-3 [JPC-3]; first compound 0.001 µM): 0.8
- relative viability (PC-3 [JPC-3]; first compound 0.01 µM): 0.737
- relative viability (PC-3 [JPC-3]; first compound 0.03162 µM): 0.749
- relative viability (PC-3 [JPC-3]; first compound 0.1 µM): 0.527
- relative viability (NCI-H23; first compound 0.001 µM): 0.186
- relative viability (NCI-H23; first compound 0.003162 µM): 0.221
- relative viability (NCI-H23; first compound 0.01 µM): 0.154
- relative viability (NCI-H23; first compound 0.03162 µM): 0.152
- relative viability (NCI-H23; first compound 0.1 µM): 0.122
- relative viability (HCC-827; first compound 0.001 µM): 0.172
- relative viability (HCC-827; first compound 0.003162 µM): 0.158
- relative viability (HCC-827; first compound 0.03162 µM): 0.177
- relative viability (HCC-827; first compound 0.1 µM): 0.204
- relative viability (LCLC-103H; first compound 0.001 µM): 0.861
- relative viability (LCLC-103H; first compound 0.003162 µM): 0.883
- relative viability (LCLC-103H; first compound 0.01 µM): 0.845
- relative viability (LCLC-103H; first compound 0.03162 µM): 0.705
- relative viability (LCLC-103H; first compound 0.1 µM): 0.477
- relative viability (NCI-H3122; first compound 0.001 µM): 0.965
- relative viability (NCI-H3122; first compound 0.003162 µM): 1.24
- relative viability (NCI-H3122; first compound 0.01 µM): 1.37
- relative viability (NCI-H3122; first compound 0.03162 µM): 0.967
- relative viability (NCI-H3122; first compound 0.1 µM): 0.382
- relative viability (ChaGo-K-1; first compound 0.001 µM): 0.884
- relative viability (ChaGo-K-1; first compound 0.003162 µM): 0.975
- relative viability (ChaGo-K-1; first compound 0.01 µM): 0.853
- relative viability (ChaGo-K-1; first compound 0.03162 µM): 0.638
- relative viability (ChaGo-K-1; first compound 0.1 µM): 0.344
- relative viability (HOP-62; first compound 0.001 µM): 0.57
- relative viability (HOP-62; first compound 0.003162 µM): 0.549
- relative viability (HOP-62; first compound 0.01 µM): 0.595
- relative viability (HOP-62; first compound 0.03162 µM): 0.271
- relative viability (NCI-H596; first compound 0.001 µM): 1.11
- relative viability (NCI-H596; first compound 0.003162 µM): 1.02
- relative viability (NCI-H596; first compound 0.01 µM): 1.11
- relative viability (NCI-H596; first compound 0.03162 µM): 1.13
- relative viability (NCI-H596; first compound 0.1 µM): 1.01
- relative viability (SW 900; first compound 0.003162 µM): 0.479
- relative viability (SW 900; first compound 0.01 µM): 0.575
- relative viability (SW 900; first compound 0.03162 µM): 0.369
- relative viability (SW 900; first compound 0.1 µM): 0.304
- relative viability (201T; first compound 0.001 µM): 0.568
- relative viability (201T; first compound 0.003162 µM): 0.546
- relative viability (201T; first compound 0.01 µM): 0.563
- relative viability (201T; first compound 0.03162 µM): 0.424
- relative viability (201T; first compound 0.1 µM): 0.317
- relative viability (NCI-H1975; first compound 0.001 µM): 0.622
- relative viability (NCI-H1975; first compound 0.003162 µM): 0.571
- relative viability (NCI-H1975; first compound 0.01 µM): 0.744
- relative viability (NCI-H1975; first compound 0.03162 µM): 0.613
- relative viability (NCI-H1975; first compound 0.1 µM): 0.667
